Results published in patent publication US5491220A, “Surface loop structural analogues of fibroblast growth factors” (Yeda Research and Development Co., Ltd., priority 1994, dated 1996).

Key:
FGFR2(IIIb) = assay: Chemical cross-linking of 125I-FGF to soluble FGFR2(IIIb); type: binding, murine; conditions: with and without excess unlabelled FGF
Description: (§1) Binding of FGF proteins to different FGF receptors are determined in this example, by measuring the degree of competition for binding to different types of FGF-receptor proteins between a radioiodinated FGF protein and various unlabelled proteins, or by the direct binding of radioiodinated FGF's to various receptor proteins. Binding studies are confirmed by chemical cross-linking of the radioiodinated FGF to soluble receptors in the presence and absence of excess unlabelled FGF.
(§2) Soluble FGF receptor proteins are constructed by cloning of the extracellular region of murine FGF receptor 1 (FGFR-1; flg), FGF receptor 2 (FGFR-2; bek) or the KGF receptor (FGFR(IIIb); K-sam) into the alkaline phosphatase-tag expression vector, which encodes for a secreted form of placental alkaline phosphatase (AP). The FGF receptor alkaline phosphatase (FRAP) plasmids are cotransfected into NIH 3T3 cells by electroporation with a selectable neomycin resistance gene. Clonies are selected in G418 (600 μg/ml) and screened for secreted AP enzyme activity in the conditioned medium. Clones of each receptor which produced a high level of AP activity (2 to 4 A405 units/min/ml) are then used to produce conditioned medium for binding assays.
(§3) Chemical cross-linking experiments are carried out at room temperature in a volume of 20 μl in siliconized 0.5-ml microcentrifuge tubes. The reaction mixtures contain FGF receptor immobilized to anti-AP monoclonal antibodies coupled to protein A Sepharose®, 200 ng/ml heparin, 2 ng/ml^125 I-bFGF, 20 mM phosphate buffer (pH 7.4), and 140 mM NaCl. After a 90 minute incubation, […] of a solution of disuccinimidyl suberate (Pierce) dissolved in dimethyl sulfoxide is added to give a final concentration of 0.15 mM, and the mixture incubated for an additional 30 minutes. The reaction is quenched by addition of […] of 200 mM ethanolamine-HCl (pH 8.0) for 30 min. The reaction mixtures are diluted 1:1 with 2× SDS-polyacrylamide gel electrophoresis loading buffer and electrophoresed on an SDS-12% polyacrylamide gel. Cross-linked FGF to the FGF receptor are detected by autoradiography on Kodak XAR film.

[1] = test system: bovine vascular endothelial cells derived from adult aortic arch; assay: Mitogenic activity, endothelial cell proliferation assay; type: cell-based; conditions: 5 days in culture
Description: The mitogenic activity of FGF-2, FGF-2LI and FGF-2LA are determined using bovine vascular endothelial cells derived from adult aortic arch as previously described (Gospardarowicz, D., et al., Proc. Nat. Acad. Sci. 81: 6963-6967 (1984)). Briefly, cells are seeded at an initial density of 0.8×10^4 cells per 24-well plate in 0.5 ml Dulbecco's modified Eagle's medium (DMEM) containing 10% calf serum (Hyclone, Logan, Utah) supplemented with penicillin (100 units/ml), streptomycin (100 ug/ml) and L-glutamine (2 mM). Two hours after plating, 20 ul aliquots of serial dilutions of FGF-2 and the mutants in DMEM are added. Inhibition of FGF-2-stimulated growth was determined at a fixed concentration of FGF-2, while that of the mutant proteins is varied. After 5 days in culture, duplicate plates are trypsinized and cell densities determined by cell counting in a Coulter counter. Determinations are conducted in duplicate.

[2] = test system: soluble FGF receptor 1 (FGFR-1; flg); assay: Competition binding to soluble FGFR1 (displacement of 125I-FGF-2); set-up: species or system murine; conditions: 200 ng/ml heparin
Description: as §1, §2
Components of the soluble receptor binding reaction mixture include FRAP-conditioned medium (0.24 OD units/min), 2 ng/ml^125 I-FGFs and 200 ng/ml heparin. The FGF:heparin:FRAP terniary complex is immunoprecipitated with 20 μl of a 1:1 slurry of anti-AP monoclonal antibodies coupled to protein A Sepharose®. All components are mixed at room temperature. The total volume is adjusted to 200 μl by addition of DMEM containing 0.1% bovine serum albumin. Binding is allowed to proceed for 1 to 2 hours at 24° C., after which time bound receptor complex or the ligand is recovered by centrifugation at 4° C. (10 s at 2,000×g). The pelleted material is washed twice with 500 μl of an ice cold buffer containing HEPES (20 mM), NaCl (150 mM), glycerol (10%) and Triton® X-100 (1%). ^125 I-FGF binding is quantitated by counting of the samples in a gamma counter (LKB). Alternatively, AP enzyme activity of the FRAP protein is determined by transferring the FRAP receptor bound to […] to a flat-bottom microtiter plate in a volume of 50 μl of PBS. The reaction is initiated by addition of substrate (50 μl of 2× solution of AP assay buffer containing 2M diethanoiamine, 1 mM MgCl2, 20 mM homoarginine and 12 mM p-nitrophenyl phosphate). The reaction is followed at room temperature at 405 nm in a kinetic microplate reader.

[3] = test system: cell-associated urokinase-type plasminogen activator (uPA) activity in ABAE cells; assay: Urokinase-type plasminogen activator induction in ABAE cells; type: cell-based, bovine; conditions: 24 hours, compared with FGF-2
Description: Urokinase-type plasminogen activator induction by the FGF mutants is evaluated. Adult bovine aortic endothelial (ABAE) cells are seeded at 20,000 cells/well in 96-well plates and maintained in DMEM containing 10% calf serum (Hyclone, Logan, Utah) supplemented with penicillin (100 units/ml), streptomycin (100 μg/ml) and L-glutamine (2 mM) and different concentrations of FGF-2 or mutants. After 24 hours, the cells are washed with phosphate-buffered saline and lysed in 60 mM Tris-HCl, pH 8.5, containing 0.05% Triton® X-100. Cell-associated urokinase-type plasminogen activator (uPA) activity is measured as described by Presta, et al., cited above, using the plasmin chromogenic substrate D-norleucyl-hexahydrotyrosyllysine p-nitroanilide acetate (American Diagnostics, Greenwich, Conn.). Cell-associated protein concentrations are determined using Coomassie blue binding to protein. The results are plotted in FIG. 5.

FGFR1 = assay: Chemical cross-linking of 125I-FGF to soluble FGFR1; type: binding, murine; conditions: with and without excess unlabelled FGF
Description: as §1, §2, §3

Substance	Cross-linking to FGFR2(IIIb) (FGFR2(IIIb))	Mitogenic potency compared with wild-type factor [1]	Binding to soluble FGFR1 (competition with 125I-FGF-2) [2]	Capability to induce urokinase-type plasminogen activator [3]	Cross-linking to FGFR1 (FGFR1)	Mitogenic potency, times less potent than FGF-2 [1]
FGF-2LA: human FGF-2 with loop residues 118-122 replaced by Lys-Lys-His-Ala-Glu-Lys-His from bovine FGF-1 (SEQ ID NO 16) (KKHAEKH; printed: Lys-Lys-His-Ala-Glu-Lys-His)	bind	as potent as the wild-type factor	bind equally well	significantly reduced	bind	
FGF-2LI: human FGF-2 with loop residues 118-122 replaced by Ala-Gln-Phe-Pro-Asn from human interleukin-1β (SEQ ID NO 15)	excluded from binding		bind equally well	significantly reduced	bind	5 to 10 times
